Experimental data from PubChem BioAssay AID569 (University of Pittsburgh Molecular Library Screening Center, 2006).
Each block holds one compound with its values, some of them ahead of it. Activity calls are given as the source filed them. No rule for the calls is given here.

Biological target: M-phase inducer phosphatase 2 (Homo sapiens) (UniProt P30305)
Test: concentration-response of Cdc25B catalytic domain blockers – biochemical, fluorescence, IC50, dose response (AID 569)
Conditions: recombinant Cdc25B phosphatase, fluorescence substrate

Chain of M-phase inducer phosphatase 2 (Homo sapiens) (P30305 whole entry, looked up, the tested form may be a part): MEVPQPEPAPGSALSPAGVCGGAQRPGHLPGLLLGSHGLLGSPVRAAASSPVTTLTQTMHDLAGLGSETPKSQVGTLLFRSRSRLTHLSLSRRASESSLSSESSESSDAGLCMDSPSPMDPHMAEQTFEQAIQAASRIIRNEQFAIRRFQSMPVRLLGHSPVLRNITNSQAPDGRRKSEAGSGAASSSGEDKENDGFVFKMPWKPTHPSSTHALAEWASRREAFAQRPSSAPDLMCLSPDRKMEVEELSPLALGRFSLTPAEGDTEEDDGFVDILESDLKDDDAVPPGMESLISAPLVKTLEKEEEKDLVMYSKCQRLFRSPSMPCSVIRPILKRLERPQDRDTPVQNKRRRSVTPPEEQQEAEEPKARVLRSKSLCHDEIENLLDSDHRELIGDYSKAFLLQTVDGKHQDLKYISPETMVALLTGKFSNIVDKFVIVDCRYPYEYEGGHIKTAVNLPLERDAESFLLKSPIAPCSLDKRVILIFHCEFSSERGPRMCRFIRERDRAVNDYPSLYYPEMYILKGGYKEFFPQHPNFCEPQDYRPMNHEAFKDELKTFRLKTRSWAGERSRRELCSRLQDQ

SMILES: CCOc1cc(C2C(C#N)=C(N)Oc3n[nH]c(-c4ccccc4)c32)ccc1O (stereo unspecified)
- IC50: > 50 µM (inactive)

SMILES: N#CC1=C(N)N2C(=C(C#N)C13CCCCC3)SC1CCCCC12O (stereo unspecified)
- IC50: > 50 µM (inactive)

SMILES: Cc1nc2c(C)cccn2c1/C(O)=C1\C(=O)C(=O)N(CCN(C)C)C1c1ccncc1 (stereo unspecified)
- IC50: > 50 µM (inactive)

Further lines, results first:

- IC50: > 50 µM (inactive)
SMILES: COc1cccc(N2CCN(C3CC(=O)N(c4cccc(Cl)c4)C3=O)CC2)c1 (stereo unspecified)

- IC50: > 50 µM (inactive)
SMILES: O=C1CC(N2CCN(CCc3ccccn3)CC2)C(=O)N1c1ccc(Cl)cc1 (stereo unspecified)

- IC50: 9.53 µM
SMILES: Oc1ccc2ccccc2c1C=NC12CN3CCN(CN(C3)C1)C2
